Assay results reported in paper PMC6466480 (Journal of Medicinal Chemistry, 2019).

Legend:
human D3R = human D3R (Homo sapiens, UniProt P35462); experiment: β-Arrestin recruitment assay; assay type: cell-based; conditions: agonist mode; percentage of the maximum dopamine response; CHO-K1
D4R = conditions: initially characterized as a full agonist; cited from earlier work
human D4R = biological target: T1, human D4R (Homo sapiens, UniProt P21917); experiment: cAMP inhibition assay; assay type: cell-based; conditions: read-out: Emax at D4R (partial agonist)
T1 sequence (P21917 1-419): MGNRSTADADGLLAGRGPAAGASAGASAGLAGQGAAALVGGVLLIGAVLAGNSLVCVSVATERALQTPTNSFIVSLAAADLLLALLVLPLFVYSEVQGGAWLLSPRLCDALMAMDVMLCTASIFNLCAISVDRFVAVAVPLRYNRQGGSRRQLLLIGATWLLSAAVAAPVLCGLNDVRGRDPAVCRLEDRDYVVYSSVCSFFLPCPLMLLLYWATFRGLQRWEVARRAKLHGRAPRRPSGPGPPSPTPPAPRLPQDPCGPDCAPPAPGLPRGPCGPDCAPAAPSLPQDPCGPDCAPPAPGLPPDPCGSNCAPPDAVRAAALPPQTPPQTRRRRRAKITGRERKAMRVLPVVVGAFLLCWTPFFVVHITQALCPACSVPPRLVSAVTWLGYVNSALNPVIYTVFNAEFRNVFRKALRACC

Chain of human D3R (P35462 whole entry): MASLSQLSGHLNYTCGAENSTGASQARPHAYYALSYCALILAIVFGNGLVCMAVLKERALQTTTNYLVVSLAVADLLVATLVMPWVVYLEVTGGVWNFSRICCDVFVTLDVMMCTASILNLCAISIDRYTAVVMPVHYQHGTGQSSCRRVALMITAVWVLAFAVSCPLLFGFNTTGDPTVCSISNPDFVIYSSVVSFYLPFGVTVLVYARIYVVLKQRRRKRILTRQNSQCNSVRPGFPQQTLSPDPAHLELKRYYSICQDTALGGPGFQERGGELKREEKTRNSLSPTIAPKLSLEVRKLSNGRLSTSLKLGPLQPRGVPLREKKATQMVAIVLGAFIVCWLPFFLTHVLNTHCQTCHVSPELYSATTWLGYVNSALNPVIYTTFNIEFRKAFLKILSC

**Q.** Which results are given for `Cc1cccc(NC(=O)CN2CCC(c3ccccn3)CC2)c1` [Compound 1, 2-(4-(pyridin-2-yl)piperidin-1-yl)-N-(m-tolyl)acetamide]?
**A.** D3R efficacy β-arr Emax (human D3R): very low potency and efficacy; intrinsic activity at D4R (D4R): 83%; Emax (human D4R): 23 to 62%
